# Measurements as given in ChEMBL document CHEMBL1938328, “A review on coumarins as acetylcholinesterase inhibitors for Alzheimer's disease” (Bioorg Med Chem, 2012).
# Where a name gives a salt, the structure may show the parent alone.
# Tests used:
# Acetylcholinesterase [1] = biological target: Acetylcholinesterase (Homo sapiens, UniProt P22303); test: Inhibition of AChE
# [2] = Selectivity ratio of IC50 for AChE to IC50 for BChE
# Acetylcholinesterase [3] = biological target: T1, Acetylcholinesterase (Rattus norvegicus, UniProt P37136); test: Inhibition of AChE in rat brain cortical homogenate; assay type: tissue-based
# T1 sequence (P37136 whole entry): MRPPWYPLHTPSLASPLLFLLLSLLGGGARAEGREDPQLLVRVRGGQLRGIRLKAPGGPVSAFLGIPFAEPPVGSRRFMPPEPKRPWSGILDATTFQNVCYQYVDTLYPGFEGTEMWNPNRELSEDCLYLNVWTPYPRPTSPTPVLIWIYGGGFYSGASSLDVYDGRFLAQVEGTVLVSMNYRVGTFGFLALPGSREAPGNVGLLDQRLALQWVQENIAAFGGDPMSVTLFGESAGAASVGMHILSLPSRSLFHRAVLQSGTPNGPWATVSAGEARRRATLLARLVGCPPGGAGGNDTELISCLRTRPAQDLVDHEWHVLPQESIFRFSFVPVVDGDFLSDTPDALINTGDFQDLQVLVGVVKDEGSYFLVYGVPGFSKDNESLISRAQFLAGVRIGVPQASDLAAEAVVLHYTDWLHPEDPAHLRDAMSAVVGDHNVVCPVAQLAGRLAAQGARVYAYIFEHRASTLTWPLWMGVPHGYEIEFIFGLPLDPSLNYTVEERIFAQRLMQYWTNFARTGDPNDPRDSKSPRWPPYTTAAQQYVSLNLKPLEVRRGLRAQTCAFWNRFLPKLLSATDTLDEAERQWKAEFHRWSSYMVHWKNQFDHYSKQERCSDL
# Sequence of Acetylcholinesterase (Homo sapiens, UniProt P22303) (P22303 whole entry): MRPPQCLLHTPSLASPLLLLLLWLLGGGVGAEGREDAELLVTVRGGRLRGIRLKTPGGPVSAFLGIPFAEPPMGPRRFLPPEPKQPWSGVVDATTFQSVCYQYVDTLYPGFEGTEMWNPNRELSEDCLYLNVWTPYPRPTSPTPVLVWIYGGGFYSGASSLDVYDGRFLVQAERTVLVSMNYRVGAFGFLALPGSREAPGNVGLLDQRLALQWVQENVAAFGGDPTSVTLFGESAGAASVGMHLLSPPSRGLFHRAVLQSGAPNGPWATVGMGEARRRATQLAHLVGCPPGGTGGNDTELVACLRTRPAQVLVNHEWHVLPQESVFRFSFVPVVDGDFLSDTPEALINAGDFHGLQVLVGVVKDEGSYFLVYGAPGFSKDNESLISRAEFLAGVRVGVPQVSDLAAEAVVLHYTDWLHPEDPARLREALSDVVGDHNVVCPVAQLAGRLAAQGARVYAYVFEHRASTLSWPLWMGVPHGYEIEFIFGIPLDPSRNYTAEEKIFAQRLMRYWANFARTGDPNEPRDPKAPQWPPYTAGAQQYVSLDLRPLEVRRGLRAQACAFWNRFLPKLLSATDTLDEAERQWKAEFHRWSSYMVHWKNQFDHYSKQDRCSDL
Compound,IC50 (Acetylcholinesterase [1]),Ratio IC50 [2],IC50 (Acetylcholinesterase [3])
COc1cc2c(C)c(OC)c(=O)oc2cc1OCCCCOc1cc(O)cc(N(C)C)c1,275 nM,–,–
COc1cc2oc(=O)c(OCCCCOc3cc(O)cc(N(C)C)c3)c(C)c2cc1OC,0.236 nM,> 300000,–
COc1cc2oc(=O)c(C)c(C)c2cc1OCCCN1CCN(c2ccccc2OC)CC1 [ENSACULIN HYDROCHLORIDE],–,–,360 nM
COc1ccccc1NCc1cc(=O)oc2cc3oc4ccccc4c3cc12,190 nM,–,–
